{
  "source": "patent US10206391B2",
  "about": "“Strobilurin formulations” (priority 2011, dated 2019)",
  "origin": "cited, not measured here",
  "key": {"[1]": {"assay": "not given", "remark": "listed apart in the source"}, "[2]": {"assay": "not given", "remark": "listed apart in the source"}, "[3]": {"assay": "not given", "remark": "listed apart in the source"}},
  "note": "Where two headings read alike, the source gives them in different places.",
  "data": [
    {"smiles": "CNC(=O)/C(=N/OC)c1ccccc1COc1cc(C)ccc1C", "note": "[Dimoxystrobin, (E)-2-(methoxyimino)-N-methyl-2-[α-(2,5-xylyloxy)-o-tolyl]acetamide]", "values": [
      {"measurement": "KOW logP", "setting": "pH 6.5", "result": "logP = 3.59"},
      {"measurement": "Metabolic stability in plants and xylem systemicity (in words)", "setting": "plants; plant tissues", "result": "metabolically sufficiently stable in plants and show a pronounced xylem systemicity"},
      {"measurement": "DT50 for aqueous photolysis", "setting": "[1]; water, pH 7", "result": "DT50 for aqueous photolysis 30 days, pH7"},
      {"measurement": "Time stable in aqueous solution", "setting": "[2]; pH 4-9, 50° C.", "result": "Stable >30 d in aqueous solution at pH 4-9, 50 °C"},
      {"measurement": "Solubility in DMF", "setting": "[3]; 20° C.", "result": "200 to 250", "unit": "mg/mL"},
      {"measurement": "Solubility in acetone", "setting": "[3]; 20° C.", "result": "67 to 80", "unit": "mg/mL"},
      {"measurement": "Solubility in acetonitrile", "setting": "[3]; 20° C.", "result": "50 to 57", "unit": "mg/mL"},
      {"measurement": "Solubility in dichloromethane", "setting": "[3]; 20° C.", "result": "> 250", "unit": "mg/mL"},
      {"measurement": "Solubility in ethyl acetate", "setting": "[3]; 20° C.", "result": "33 to 40", "unit": "mg/mL"},
      {"measurement": "Solubility in isopropanol", "setting": "[3]; 20° C.", "result": "isopropanol, n-heptane, n-octanol and olive oil all <10 g/l"},
      {"measurement": "Solubility in methanol", "setting": "[3]; 20° C.", "result": "20 to 25", "unit": "mg/mL"},
      {"measurement": "Solubility in n-heptane", "setting": "[3]; 20° C.", "result": "isopropanol, n-heptane, n-octanol and olive oil all <10 g/l"},
      {"measurement": "Solubility in n-octanol (octanol)", "setting": "[3]; 20° C.", "result": "isopropanol, n-heptane, n-octanol and olive oil all <10 g/l"},
      {"measurement": "Solubility in olive oil", "setting": "[3]; 20° C.", "result": "isopropanol, n-heptane, n-octanol and olive oil all <10 g/l"},
      {"measurement": "Solubility in toluene", "setting": "[3]; 20° C.", "result": "20 to 25", "unit": "mg/mL"},
      {"measurement": "Solubility in water", "setting": "[3]; pH 5.7, 20° C.", "result": 0.0043, "unit": "mg/mL"},
      {"measurement": "Solubility in water", "setting": "[3]; pH 8.0, 20° C.", "result": 0.0035, "unit": "mg/mL"}
    ]},
    {"smiles": "CC1(c2ccc(Oc3ccccc3)cc2)OC(=O)N(Nc2ccccc2)C1=O", "note": "(centres unmarked) [Famoxadone, 3-anilino-5-methyl-5-(4-phenoxyphenyl)-1,3-oxazolidine-2,4-dione]", "values": [
      {"measurement": "KOW logP", "setting": "pH 7", "result": "logP = 4.65"},
      {"measurement": "DT50 for aqueous photolysis", "setting": "[1]; pH 5", "result": 4.6, "unit": "days"},
      {"measurement": "DT50 for aqueous photolysis", "setting": "[1]; water, pH 7", "result": 1.9, "unit": "days"},
      {"measurement": "DT50 in water with light", "setting": "[2]; pH 5, 25° C.", "result": "4.6 d (pH 5, 25° C.)."},
      {"measurement": "DT50 in water with no light", "setting": "[2]; pH 5, 25° C.", "result": 41, "unit": "days"},
      {"measurement": "DT50 in water with no light", "setting": "[2]; pH 7, 25° C.", "result": 2, "unit": "days"},
      {"measurement": "DT50 in water with no light", "setting": "[2]; pH 9, 25° C.", "result": "0.0646 d (pH 9) (25° C.); in water with light, DT50"}
    ]},
    {"smiles": "CO/N=C(/C1=NOCCO1)c1ccccc1Oc1ncnc(Oc2ccccc2Cl)c1F", "note": "[Fluxastrobin, (E)-{2-[6-(2-chlorophenoxy)-5-fluoropyrimidin-4-yloxy]phenyl}(5,6-dihydro-1,4,2-dioxazin-3-yl)methanone O-methyloxime]", "values": [
      {"measurement": "KOW logP", "setting": "20° C.", "result": "logP = 2.86"},
      {"measurement": "Metabolic stability in plants and xylem systemicity (in words)", "setting": "plants; plant tissues", "result": "metabolically sufficiently stable in plants and show a pronounced xylem systemicity"},
      {"measurement": "Photolytic stability DT50", "setting": "[1]; sterile aqueous phosphate buffer, pH 7", "result": "DT50 3.8-4.1 days in sterile aqueous phosphate"},
      {"measurement": "Photolytic stability DT50", "setting": "[1]; under solar summer conditions, Phoenix AZ, USA in June", "result": "buffer, pH 7; 19- 22 days under solar summer"},
      {"measurement": "Hydrolysis DT50", "setting": "[2]; pH 4, 7 and 9, 50° C.", "result": "Hydrolysis DT50 >1 y (pH 4, 7 and 9, 50° C.);"},
      {"measurement": "Solubility in dichloromethane", "setting": "[3]; 20° C.", "result": "> 250", "unit": "mg/mL"},
      {"measurement": "Solubility in isopropanol", "setting": "[3]; 20° C.", "result": 6.7, "unit": "mg/mL"},
      {"measurement": "Solubility in n-heptane", "setting": "[3]; 20° C.", "result": 0.04, "unit": "mg/mL"},
      {"measurement": "Solubility in xylene", "setting": "[3]; 20° C.", "result": 38.1, "unit": "mg/mL"},
      {"measurement": "Solubility in water", "setting": "[3]; pH 7, 20° C.", "result": 0.00229, "unit": "mg/mL"},
      {"measurement": "Solubility in water", "setting": "[3]; unbuffered, 20° C.", "result": 0.00256, "unit": "mg/mL"}
    ]},
    {"smiles": "CO/N=C(/C(=O)OC)c1ccccc1COc1ccccc1C", "note": "[Kresoxim-methyl, methyl(E)-methoxyimino[2-(o-tolyloxymethyl)phenyl]acetate]", "values": [
      {"measurement": "DT50 for aqueous photolysis", "setting": "[1]; water, pH 7", "result": "Photolysis DT50 18.2 days, pH7"},
      {"measurement": "Stability (in words)", "setting": "[2]; pH 5, text wrapped over r19-r20 reads 'relatively stable at pH 5'", "result": "stable at pH 5."},
      {"measurement": "Hydrolysis DT50", "setting": "[2]; pH 7", "result": 816, "unit": "h"},
      {"measurement": "Hydrolysis DT50", "setting": "[2]; pH 9", "result": 7, "unit": "h"}
    ]},
    {"smiles": "CNC(=O)/C(=N/OC)c1ccccc1CO/N=C(C)/C(=N/OC)C(/C)=N/OC", "note": "[Orysastrobin, 2[(E)-methoxyimino]-2-[(3E,6E)-2-{5-[(E)-methoxyimino]-4,6-dimethyl-2,8-dioxa-3,7-diazanona-3,6-dienyl}phenyl]-N-methylacetamide]", "values": [
      {"measurement": "KOW logP", "setting": "20° C.", "result": "logP = 2.36"},
      {"measurement": "DT50 for aqueous photolysis", "setting": "[1]; water, pH 7", "result": "Photolysis DT50 0.8 days, pH7"},
      {"measurement": "Solubility in water", "setting": "[3]; 20° C.", "result": "water 80.6 mg/l (20° C.)."}
    ]},
    {"smiles": "CO/C=C(/C(=O)OC)c1ccccc1COc1cccc(C(F)(F)F)n1", "note": "[Picoxystrobin, methyl(E)-3-methoxy-2-[2-(6-trifluoromethyl-2-pyridyloxymethyl)phenyl]acrylate]", "values": [
      {"measurement": "Metabolic stability in plants and xylem systemicity (in words)", "setting": "plants; in vivo", "result": "metabolically sufficiently stable in plants and show a pronounced xylem systemicity"},
      {"measurement": "DT50 for aqueous photolysis", "setting": "[1]; water, pH 7", "result": "DT50 for aqueous photolysis 21 days, pH7"},
      {"measurement": "DT50", "setting": "[2]; pH 9, 50° C.", "result": "~15", "unit": "days"}
    ]},
    {"smiles": "COC(=O)N(OC)c1ccccc1COc1ccn(-c2ccc(Cl)cc2)n1", "note": "[Pyraclostrobin, methyl N-{2-[1-(4-chlorophenyl)pyrazol-3-yloxymethyl]phenyl}(N-methoxy)carbamate]", "values": [
      {"measurement": "DT50 for aqueous photolysis", "setting": "[1]; water, pH 7", "result": "Photolysis DT50 in water 1.7 days, pH7"},
      {"measurement": "Time stable", "setting": "[2]; pH 5-7, 25° C.", "result": "Stable >30 d (pH 5-7, 25° C.)."},
      {"measurement": "Solubility in acetone", "setting": "[3]; 20° C.", "result": "acetonitrile, dichloromethane and toluene >500 (all g/l"},
      {"measurement": "Solubility in acetonitrile", "setting": "[3]; 20° C.", "result": "acetonitrile, dichloromethane and toluene >500 (all g/l"},
      {"measurement": "Solubility in dichloromethane", "setting": "[3]; 20° C.", "result": "acetonitrile, dichloromethane and toluene >500 (all g/l"},
      {"measurement": "Solubility in ethyl acetate", "setting": "[3]; 20° C.", "result": "acetonitrile, dichloromethane and toluene >500 (all g/l"},
      {"measurement": "Solubility in isopropanol", "setting": "[3]; 20° C.", "result": 30.0, "unit": "mg/mL"},
      {"measurement": "Solubility in methanol", "setting": "[3]; 20° C.", "result": "methanol 100.8, acetone, ethyl acetate, g/l"},
      {"measurement": "Solubility in n-heptane", "setting": "[3]; 20° C.", "result": 3.7, "unit": "mg/mL"},
      {"measurement": "Solubility in n-octanol (octanol)", "setting": "[3]; 20° C.", "result": 24.2, "unit": "mg/mL"},
      {"measurement": "Solubility in olive oil", "setting": "[3]; 20° C.", "result": 28.0, "unit": "mg/mL"},
      {"measurement": "Solubility in toluene", "setting": "[3]; 20° C.", "result": "acetonitrile, dichloromethane and toluene >500 (all g/l"}
    ]},
    {"smiles": "CO/N=C(/C(=O)OC)c1ccccc1CO/N=C(\\C)c1cccc(C(F)(F)F)c1", "note": "[Trifloxystrobin, methyl(E)-methoxyimino-{(E)-α-[1-(α,α,α-trifluoro-m-tolyl)ethylideneaminooxy]-o-tolyl}acetate]", "values": [
      {"measurement": "DT50 for aqueous photolysis", "setting": "[1]; pH 5", "result": 1.1, "unit": "days"},
      {"measurement": "DT50 for aqueous photolysis", "setting": "[1]; water, pH 7", "result": 2.7, "unit": "days"},
      {"measurement": "Stability to hydrolysis (in words)", "setting": "[2]; pH 5", "result": "stable"},
      {"measurement": "Hydrolysis DT50", "setting": "[2]; pH 7, 20° C.", "result": 11.4, "unit": "w"},
      {"measurement": "Hydrolysis DT50", "setting": "[2]; pH 9, 20° C.", "result": 27.1, "unit": "h"}
    ]}
  ]
}
